Test results reported in ChEMBL document CHEMBL4000146, “Synthesis, antiplasmodial activity and mechanistic studies of pyrimidine-5-carbonitrile and quinoline hybrids” (Eur J Med Chem, 2015).

Columns and labels:
L1210 = experiment: Cytotoxicity against mouse L1210 cells assessed as inhibition of cell proliferation by Coulter counter analysis; assay type: cell-based
CCRF-CEM = experiment: Cytotoxicity against human CEM cells assessed as inhibition of cell proliferation by Coulter counter analysis; assay type: cell-based
HeLa = experiment: Cytotoxicity against human HeLa cells assessed as inhibition of cell proliferation by Coulter counter analysis; assay type: cell-based
[1] = Cytotoxicity against human HEL cells assessed as alteration of normal cell morphology by microscopic analysis; assay type: cell-based
[2] = Cytotoxicity against human HEL cells assessed as inhibition of cell viability by colorimetric formazan-based MTS assay
[3] = Cytotoxicity against human HeLa cells assessed as alteration of normal cell morphology by microscopic analysis; assay type: cell-based
[4] = Cytotoxicity against african green monkey Vero cells assessed as alteration of normal cell morphology by microscopic analysis; assay type: cell-based; conditions: chlorocebus sabaeus
Human alphaherpesvirus 1 [5] = assay type: functional, cell-based; conditions: Human alphaherpesvirus 1, KOS, HEL
Human alphaherpesvirus 2 = assay type: functional, cell-based; conditions: Human alphaherpesvirus 2, G, HEL
Human alphaherpesvirus 1 [6] = assay type: functional, cell-based; conditions: Human alphaherpesvirus 1, KOS, HEL; remark: listed apart in the source
unidentified adenovirus = assay type: functional, cell-based; conditions: HEL
Coxsackievirus [7] = assay type: functional, cell-based; conditions: B4, HeLa
Human orthopneumovirus = assay type: functional, cell-based; conditions: human respiratory syncytial virus, HeLa
Human respirovirus 3 = assay type: functional; conditions: Human respirovirus 3, Vero
[8] = tested on: Mammalian orthoreovirus 1; assay type: functional; conditions: Mammalian orthoreovirus 1, Vero
Sindbis virus = assay type: functional; conditions: Vero
Coxsackievirus [9] = assay type: functional; conditions: B4, Vero
Punta Toro virus = assay type: functional; conditions: Vero
Human betaherpesvirus 5 [10] = assay type: functional, cell-based; conditions: Human betaherpesvirus 5, AD169, HEL
Human betaherpesvirus 5 [11] = assay type: functional, cell-based; conditions: Human betaherpesvirus 5, Davis, HEL
Human alphaherpesvirus 3 [12] = assay type: functional, cell-based; conditions: Human alphaherpesvirus 3, strain Oka vaccine, HEL
Human alphaherpesvirus 3 [13] = assay type: functional, cell-based; conditions: Human alphaherpesvirus 3, 07-1, HEL
[14] = Cytotoxicity against MDCK cells assessed as alteration of normal cell morphology by microscopic analysis; assay type: cell-based, Canis lupus familiaris; conditions: dog
[15] = Cytotoxicity against MDCK cells assessed as inhibition of cell viability by colorimetric formazan-based MTS assay; parameters: species or system Canis lupus familiaris; conditions: dog
Vaccinia virus = experiment: microbe, parasite or virus in culture; conditions: Orthopoxvirus vaccinia, HEL
[16] = tested on: Vesicular stomatitis virus; experiment: microbe, parasite or virus in culture; conditions: HEL
[17] = tested on: Vesicular stomatitis virus; experiment: microbe, parasite or virus in culture; conditions: HeLa
Influenza A virus [18] = experiment: microbe, parasite or virus in culture; conditions: H1N1, MDCK
Influenza A virus [19] = experiment: microbe, parasite or virus in culture; conditions: H3N2, MDCK
Influenza B virus = experiment: microbe, parasite or virus in culture; conditions: MDCK
Plasmodium falciparum [20] = experiment: Resistance index, ratio of IC50 for chloroquine-resistant asexual intraerythrocytic stage of Plasmodium falciparum Dd2 to IC50 for chloroquine-sensitive asexual intraerythrocytic stage of Plasmodium falciparum NF54; assay type: functional
Plasmodium falciparum [21] = experiment: microbe, parasite or virus in culture; conditions: NF54
Plasmodium falciparum [22] = experiment: microbe, parasite or virus in culture; conditions: Dd2
[23] = Selectivity index, ratio of IC50 for human HeLa cells to IC50 for chloroquine-sensitive asexual intraerythrocytic stage of Plasmodium falciparum NF54; assay type: toxicity, cell-based; conditions: read-out: Ratio IC50
[24] = Selectivity index, ratio of IC50 for human HeLa cells to IC50 for chloroquine-resistant asexual intraerythrocytic stage of Plasmodium falciparum Dd2; assay type: toxicity, cell-based; conditions: read-out: Ratio IC50

SMILES	MCC [1]	MCC [3]	MCC [4]	EC50 (Human alphaherpesvirus 1 [5])	EC50 (Human alphaherpesvirus 2)	EC50 (Human alphaherpesvirus 1 [6])	EC50 (Human orthopneumovirus)	EC50 [8]	EC50 (Sindbis virus)	EC50 (Coxsackievirus [9])	EC50 (Human betaherpesvirus 5 [10])	EC50 (Human betaherpesvirus 5 [11])	EC50 (Human alphaherpesvirus 3 [12])	EC50 (Human alphaherpesvirus 3 [13])	CC50 [15]	EC50 (Vaccinia virus)	EC50 [16]	EC50 (Influenza A virus [18])	EC50 (Influenza A virus [19])	EC50 (Influenza B virus)	further results
CCN(CC)CCCC(C)Nc1ccnc2cc(Cl)ccc12 (stereo not drawn) [CHLOROQUINE]	≥ 20 µM	> 100 µM	> 100 µM	> 20 µM	> 20 µM	> 20 µM	> 100 µM	> 100 µM	> 100 µM	> 100 µM	> 20 µM	> 4 µM	> 4 µM	> 4 µM	55.6 µM	> 20 µM	> 20 µM	> 20 µM	> 20 µM	> 20 µM	IC50 (L1210): 15 µM; IC50 (CCRF-CEM): 23 µM; IC50 (HeLa): 18 µM; CC50 [2]: 58.5 µM; EC50 (unidentified adenovirus): > 20 µM; EC50 (Coxsackievirus [7]): > 100 µM; EC50 (Human respirovirus 3): > 100 µM; EC50 (Punta Toro virus): > 100 µM; MCC [14]: 100 µM; EC50 [17]: > 100 µM
C[C@H]1[C@H](OC(=O)CCC(=O)O)O[C@@H]2O[C@@]3(C)CC[C@H]4[C@H](C)CC[C@@H]1[C@@]24OO3 [ARTESUNATE]	–	–	–	–	–	–	–	–	–	–	–	–	–	–	–	–	–	–	–	–	Ratio IC50 (Plasmodium falciparum [20]): 1.38; IC50 (Plasmodium falciparum [21]): 0.0126 µM; IC50 (Plasmodium falciparum [22]): 0.0174 µM
CSc1nc(NCCCCNc2ccnc3cc(Cl)ccc23)c(C#N)c(-c2ccccc2)n1	4 to 20 µM	100 µM	20 µM	> 0.8 µM	> 0.8 µM	> 0.8 µM	> 20 µM	> 4 µM	> 4 µM	> 4 µM	> 4 µM	> 4 µM	> 4 µM	> 4 µM	10.7 µM	> 0.8 µM	> 0.8 µM	> 4 µM	> 4 µM	> 4 µM	Ratio IC50 (Plasmodium falciparum [20]): 2.71; IC50 (L1210): 4.4 µM; IC50 (CCRF-CEM): 5.2 µM; IC50 (HeLa): 8.5 µM; selectivity ratio [23]: 78.3; selectivity ratio [24]: 28.7; CC50 [2]: 8.2 µM; EC50 (unidentified adenovirus): > 4 µM; EC50 (Coxsackievirus [7]): > 20 µM; EC50 (Human respirovirus 3): > 4 µM; EC50 (Punta Toro virus): > 4 µM; MCC [14]: 20 µM; IC50 (Plasmodium falciparum [21]): 0.109 µM; IC50 (Plasmodium falciparum [22]): 0.295 µM; EC50 [17]: > 20 µM
CSc1nc(NCCCCNc2ccnc3cc(Cl)ccc23)c(C#N)c(-c2ccc([N+](=O)[O-])cc2)n1	4 µM	4 µM	4 µM	> 0.8 µM	> 0.8 µM	> 0.8 µM	> 0.8 µM	> 0.8 µM	> 0.8 µM	> 0.8 µM	> 0.8 µM	> 0.8 µM	> 0.8 µM	> 0.8 µM	2 µM	> 0.8 µM	> 0.8 µM	> 0.8 µM	> 0.8 µM	> 0.8 µM	Ratio IC50 (Plasmodium falciparum [20]): 12.13; IC50 (L1210): 0.96 µM; IC50 (CCRF-CEM): 0.76 µM; IC50 (HeLa): 0.89 µM; selectivity ratio [23]: 20.3; selectivity ratio [24]: 1.6; CC50 [2]: 1.7 µM; EC50 (unidentified adenovirus): > 0.8 µM; EC50 (Coxsackievirus [7]): > 0.8 µM; EC50 (Human respirovirus 3): > 0.8 µM; EC50 (Punta Toro virus): > 0.8 µM; MCC [14]: 4 µM; IC50 (Plasmodium falciparum [21]): 0.0438 µM; IC50 (Plasmodium falciparum [22]): 0.532 µM; EC50 [17]: > 0.8 µM
CSc1nc(OCCCNc2ccnc3cc(Cl)ccc23)c(C#N)c(-c2ccccc2)n1	4 µM	4 µM	4 µM	> 0.8 µM	> 0.8 µM	> 0.8 µM	> 0.8 µM	> 0.8 µM	> 0.8 µM	> 0.8 µM	> 0.8 µM	> 0.8 µM	> 0.8 µM	> 0.8 µM	2.1 µM	> 0.8 µM	> 0.8 µM	> 0.8 µM	> 0.8 µM	> 0.8 µM	Ratio IC50 (Plasmodium falciparum [20]): 2.34; IC50 (L1210): 3.9 µM; IC50 (CCRF-CEM): 3.3 µM; IC50 (HeLa): 3.4 µM; selectivity ratio [23]: 38.3; selectivity ratio [24]: 16.3; CC50 [2]: 1.7 µM; EC50 (unidentified adenovirus): > 0.8 µM; EC50 (Coxsackievirus [7]): > 0.8 µM; EC50 (Human respirovirus 3): > 0.8 µM; EC50 (Punta Toro virus): > 0.8 µM; MCC [14]: 4 µM; IC50 (Plasmodium falciparum [21]): 0.0888 µM; IC50 (Plasmodium falciparum [22]): 0.208 µM; EC50 [17]: > 0.8 µM
COc1ccc(-c2nc(SC)nc(NCCCCNc3ccnc4cc(Cl)ccc34)c2C#N)cc1	4 to 20 µM	20 µM	20 µM	> 0.8 µM	> 0.8 µM	> 0.8 µM	> 4 µM	> 4 µM	> 4 µM	> 4 µM	> 4 µM	> 4 µM	> 4 µM	> 4 µM	10 µM	> 0.8 µM	> 0.8 µM	> 4 µM	> 4 µM	> 4 µM	Ratio IC50 (Plasmodium falciparum [20]): 13.92; IC50 (L1210): 3.2 µM; IC50 (CCRF-CEM): 2.7 µM; IC50 (HeLa): 3.4 µM; selectivity ratio [23]: 30.9; selectivity ratio [24]: 2.2; CC50 [2]: 7.9 µM; EC50 (unidentified adenovirus): > 4 µM; EC50 (Coxsackievirus [7]): > 4 µM; EC50 (Human respirovirus 3): > 4 µM; EC50 (Punta Toro virus): > 4 µM; MCC [14]: 20 µM; IC50 (Plasmodium falciparum [21]): 0.11 µM; IC50 (Plasmodium falciparum [22]): 1.53 µM; EC50 [17]: > 4 µM
CSc1nc(NCCCCNc2ccnc3cc(Cl)ccc23)c(C#N)c(-c2ccc(C)cc2)n1	20 µM	100 µM	20 µM	> 4 µM	> 4 µM	> 4 µM	> 20 µM	> 4 µM	> 4 µM	> 4 µM	> 4 µM	> 4 µM	> 4 µM	> 4 µM	9.9 µM	> 4 µM	> 4 µM	> 4 µM	> 4 µM	> 4 µM	Ratio IC50 (Plasmodium falciparum [20]): 4.54; IC50 (L1210): 4.3 µM; IC50 (CCRF-CEM): 4.9 µM; IC50 (HeLa): 5 µM; selectivity ratio [23]: 41.9; selectivity ratio [24]: 9.2; CC50 [2]: 8.2 µM; EC50 (unidentified adenovirus): > 4 µM; EC50 (Coxsackievirus [7]): > 20 µM; EC50 (Human respirovirus 3): > 4 µM; EC50 (Punta Toro virus): > 4 µM; MCC [14]: 20 µM; IC50 (Plasmodium falciparum [21]): 0.119 µM; IC50 (Plasmodium falciparum [22]): 0.543 µM; EC50 [17]: > 20 µM
N#Cc1c(NCCCCNc2ccnc3cc(Cl)ccc23)nc(N2CCOCC2)nc1-c1ccccc1	20 µM	20 µM	20 µM	> 4 µM	> 4 µM	> 4 µM	> 4 µM	> 4 µM	> 4 µM	> 4 µM	> 4 µM	> 4 µM	> 4 µM	> 4 µM	10.9 µM	> 4 µM	> 4 µM	> 4 µM	> 4 µM	> 4 µM	Ratio IC50 (Plasmodium falciparum [20]): 1.95; IC50 (L1210): 4.2 µM; IC50 (CCRF-CEM): 4.6 µM; IC50 (HeLa): 17 µM; selectivity ratio [23]: 86.3; selectivity ratio [24]: 44; CC50 [2]: 11.9 µM; EC50 (unidentified adenovirus): > 4 µM; EC50 (Coxsackievirus [7]): > 4 µM; EC50 (Human respirovirus 3): > 4 µM; EC50 (Punta Toro virus): > 4 µM; MCC [14]: 20 µM; IC50 (Plasmodium falciparum [21]): 0.198 µM; IC50 (Plasmodium falciparum [22]): 0.386 µM; EC50 [17]: > 4 µM
Nc1nc2c(ncn2COCCO)c(=O)[nH]1 [ACYCLOVIR]	250 to 400 µM	–	–	0.2 µM	0.1 µM	10 µM	–	–	–	–	1.24 µM	0.51 µM	1.69 µM	49.3 µM	–	> 250 µM	> 250 µM	–	–	–	–
CSc1nc(NCCCNc2ccnc3cc(Cl)ccc23)c(C#N)c(-c2ccccc2)n1	20 µM	100 µM	100 µM	> 4 µM	> 4 µM	> 4 µM	> 20 µM	> 20 µM	> 20 µM	> 20 µM	> 4 µM	> 4 µM	> 4 µM	> 4 µM	10.3 µM	> 4 µM	> 4 µM	> 4 µM	> 4 µM	> 4 µM	Ratio IC50 (Plasmodium falciparum [20]): 2.38; IC50 (L1210): 4.7 µM; IC50 (CCRF-CEM): 4.7 µM; IC50 (HeLa): 11 µM; selectivity ratio [23]: 82.3; selectivity ratio [24]: 34.4; CC50 [2]: 43.4 µM; EC50 (unidentified adenovirus): > 20 µM; EC50 (Coxsackievirus [7]): > 20 µM; EC50 (Human respirovirus 3): > 20 µM; EC50 (Punta Toro virus): > 20 µM; MCC [14]: 20 µM; IC50 (Plasmodium falciparum [21]): 0.134 µM; IC50 (Plasmodium falciparum [22]): 0.319 µM; EC50 [17]: > 20 µM
NC(=O)c1ncn([C@@H]2O[C@H](CO)[C@@H](O)[C@H]2O)n1 [RIBAVIRIN]	–	> 250 µM	> 250 µM	–	–	–	10 µM	> 250 µM	> 250 µM	250 µM	–	–	–	–	100 µM	–	–	7.2 to 9 µM	6.9 to 9 µM	4 to 4.5 µM	–
